Test system: Foxp3+Helios+ Tregs
Assay: Foxp3 and Helios staining (flow cytometry) of Tregs stimulated/expanded in vitro with anti-CD3/anti-CD28 and IL-2
Assay type: cell-based, human
Source text: To determine if a correlation exists between Helios expression and TSDR methylation status, four different CD4^+ subsets (Foxp3^+Helios^+, Foxp3^+Helios^−, Foxp3^−Helios^+, and Foxp3^−Helios^−) were isolated and expression of various proteins analyzed. Briefly, human PBMCs were obtained from 20-80 year-old healthy male donors by Department of Transfusion Medicine at National Institutes of Health. CD4^+CD25^hiCD127^− Tregs were isolated by cell sorting on a FACSAria. Sorted Treg (0.2×10^6) cells were re-suspended in complete RPMI-1640 supplemented with 10% heat-inactivated fetal calf serum, and stimulated in plates coated with anti-CD3ϵ (10 μg/ml) and anti-CD28 (2 μg/ml) in the presence of IL-2 (150 U/ml) for 5-6 days. Stimulated cells were washed in RPMI 1640-10 media twice and expanded in complete RPMI 1640-10 with recombinant IL-2 (150 U/ml) for 5-10 days in the presence of Treg-expander magnetic beads (Cell:Bead=4:1). To evaluate the purity of sorted Tregs, cells were stained with anti-Foxp3 and anti-Helios (Biolegend) in Foxp3-staining buffer (eBioscience). All flow cytometry was performed on a FACS LSRII flow cytometer (Becton Dickinson) and analyzed with FlowJo software (TreeStar).
Initially, two potential candidates were selected for testing: TGFβ, and the toll-like receptor 9 (TLR9) agonist CpG oligodeoxynucleotide (ODN). […]

Molecule	stabilization / increase of the Foxp3+Helios+ population, single agents (CD4+CD25+ cells, 5 days with agent alone, then 7 days without (FIG. 2B))	effect on the stabilization of Foxp3+Helios+ T cells (TLR 7 / TLR 8 agonists at 10 μM compared with CpG ODN (FIG. 6B))
TGFβ: TGFβ, candidate factor added at 5 ng/ml during Treg stimulation	modest increase	–
CCCCNc1nc(N)c2[nH]c(=O)n(Cc3ccc(C(=O)NCC(=O)O)cc3)c2n1 [CL264]	–	Neither the TLR 8 nor the TLR 7 agonists had any effect
